The conditions of data set [1]: patients, cardiovascular toxicity reference; cited from earlier work.
The test system of data set [2] is BCR-ABL1^T315I+ CML. Nature of the data set: intrafemoral co-injection of fibronectin with leukemia-initiating cells, retroviral transduction/transplantation model of CML. It is filed as in vivo, mouse (Balb/c). The source says: FIG. 7: White blood cell counts per μl in peripheral blood (a) and survival (b) of mice intravenously transplanted (no FN) or intrafemorally co-transplanted with BCR-ABL1 (gray colors)- or BCR-ABL1T315I (blue colors)-transduced bone marrow and vehicle or FN.
(§1) The inventors have shown by immunofluorescence (FIG. 5) and immunohistochemistry of bone sections of mice transplanted with empty vector-transduced cells, or mice with BCR-ABL1^WT+ or BCR-ABL1^T315I+ CML-like myeloproliferative neoplasia (FIG. 6), that BCR-ABL1^T315I+ cells deposit less fibronectin in their environment than BCR-ABL1^WT+ cells, which is likely also reflected by their differences in their interaction with the BMM.
(§2) Our retroviral stock was generated and bone marrow transplantation experiments were performed as described earlier (9, 14, 16). In general, we injected between 2.25 and 2.5×10^5 transduced cells into female irradiated (750 cGy) Balb/c recipient mice. The T315I point mutation in BCR-ABL1 was introduced by site-directed mutagenesis in the open reading frame of the MSCV IRES GFP vector.
(§3) Therapeutic application of fibronectin was performed as follows: intravenous application of 200 μg bovine fibronectin (in HBSS) on days 9, 10 and 12 post transplantation; for vehicle control treatments, 200 μl of HBSS (equal volume to fibronectin dose) was administered. […]

The test system of data set [3] is BCR-ABL1^T315I+ CML. Kind of data set: intravenous fibronectin on days 9, 10 and 12 post transplantation, retroviral transduction/transplantation model of CML. The note with it: three intravenous injections on days 9, 10 and 12 post transplantation, BCR-ABL1T315I+ CML vs vehicle-treated mice, FIG. 8. It is filed as in vivo, mouse (Balb/c).
From the text: FIG. 8: Kaplan-Meier survival curve of mice intravenously transplanted with BCR-ABL1 (gray colours) or BCR-ABL1T315I (blue colours)-transduced bone marrow treated with vehicle or FN on days 9, 10 and 12 after transplantation.
as §1, §2, §3

In another data set the test system is LSC in CML. The note with it: but not AML; cited from earlier work.

In the case of `Cc1nc(Nc2ncc(C(=O)Nc3c(C)cccc3Cl)s2)cc(N2CCN(CCO)CC2)n1` [dasatinib], the adverse events entry in data set [1] is given as “frequently associated with severe adverse events”.
In the case of `Cc1cn(-c2cc(NC(=O)c3ccc(C)c(Nc4nccc(-c5cccnc5)n4)c3)cc(C(F)(F)F)c2)cn1` [nilotinib], the adverse events result in data set [1] is “frequently associated with severe adverse events”.
In the case of `Cc1ccc(C(=O)Nc2ccc(CN3CCN(C)CC3)c(C(F)(F)F)c2)cc1C#Cc1cnc2cccnn12` [ponatinib], the adverse events entry in data set [1] is “frequently associated with severe adverse events”.
For the molecule “fibronectin: Murine fibronectin (Abcam ab92784) for intrafemoral injection; lyophilized bovine fibronectin (Thermo Fisher 33010018) for intravenous application”, the “tumor burden (white blood cell counts per μl in peripheral blood)” value in the data set on BCR-ABL1^T315I+ CML [2] (intrafemoral co-injection of fibronectin with BCR-ABL1WT+ or BCR-ABL1T315I+ leukemia-initiating cells vs vehicle, FIG. 7a) is on record as “significantly decreased the tumor burden”. The survival result in the data set on BCR-ABL1^T315I+ CML [2] (recipients of BCR-ABL1T315I-transduced bone marrow, intrafemoral co-injection vs vehicle, FIG. 7b) is on record as “prolonged survival”; in the data set with BCR-ABL1^T315I+ CML [3], “significant prolongation of survival”.

B1: parathyroid hormone: the most potent regulator of bone turnover (protein, UniProt P01270 32-115, looked up)
Parathyroid hormone: SVSEIQLMHNLGKHLNSMERVEWLRKKLQDVHNFVALGAPLAPRDAGSQRPRKKEDNVLVESHEKSLGEADKADVNVLTKAKSQ
modifications: Parathyroid hormone
For the molecule B1, the LSC number result in the data set on LSC in CML is “reduction of LSC in CML”.

(Values after patent US20190374618A1, “FIBRONECTIN OR ILK INHIBITORS FOR USE IN THE TREATMENT OF LEUKEMIA” (Chemotherapeutisches Forschungsinstitut Georg-Speyer-Haus, priority 2016, published 2019).)
